Experimental findings from US12479847B2 (DANA-FARBER CANCER INSTITUTE, INC., priority 2019, dated 2025) are described below.

Common to all, as to assay: KINOMEscan (ScanMAX) kinase profiling
Holding throughout (assay type): binding

The target of assay [1] is T1, panel of 468 kinases (Homo sapiens, UniProt P36888, D835H).
T1 construct: purchased KINOMEscan (ScanMAX) service
T1 sequence (P36888 27-993 D835H): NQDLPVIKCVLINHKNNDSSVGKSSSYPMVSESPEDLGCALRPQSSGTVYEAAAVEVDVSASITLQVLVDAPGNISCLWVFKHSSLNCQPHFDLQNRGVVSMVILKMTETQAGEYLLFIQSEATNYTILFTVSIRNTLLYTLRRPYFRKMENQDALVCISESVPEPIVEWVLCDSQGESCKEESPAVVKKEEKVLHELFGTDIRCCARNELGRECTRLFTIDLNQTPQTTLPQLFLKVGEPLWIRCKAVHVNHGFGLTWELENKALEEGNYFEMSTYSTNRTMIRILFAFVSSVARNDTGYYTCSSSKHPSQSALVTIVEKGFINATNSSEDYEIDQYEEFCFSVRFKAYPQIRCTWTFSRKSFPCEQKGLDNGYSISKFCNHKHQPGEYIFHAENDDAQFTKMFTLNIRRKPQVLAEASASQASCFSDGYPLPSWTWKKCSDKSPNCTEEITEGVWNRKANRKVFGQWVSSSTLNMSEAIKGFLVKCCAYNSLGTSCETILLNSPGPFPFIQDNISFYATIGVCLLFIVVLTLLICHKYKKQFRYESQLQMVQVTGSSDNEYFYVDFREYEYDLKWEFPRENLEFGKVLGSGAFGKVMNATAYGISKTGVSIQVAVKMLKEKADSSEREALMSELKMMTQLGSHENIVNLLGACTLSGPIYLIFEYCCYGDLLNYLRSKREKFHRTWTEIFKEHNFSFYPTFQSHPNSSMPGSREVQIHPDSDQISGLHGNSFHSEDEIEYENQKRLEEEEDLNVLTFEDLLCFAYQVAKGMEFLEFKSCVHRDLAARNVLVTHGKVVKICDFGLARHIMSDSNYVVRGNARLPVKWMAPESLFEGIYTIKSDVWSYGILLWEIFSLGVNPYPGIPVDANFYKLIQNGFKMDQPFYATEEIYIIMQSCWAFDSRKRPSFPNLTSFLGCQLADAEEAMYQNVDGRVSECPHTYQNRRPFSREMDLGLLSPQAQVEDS
The following applies: FLT3(D835H); 1 μM; read-out: % control.

Assay [2] addresses T2, panel of 468 kinases (Homo sapiens, UniProt P30530).
T2 construct: purchased KINOMEscan (ScanMAX) service
T2 sequence (P30530 26-894): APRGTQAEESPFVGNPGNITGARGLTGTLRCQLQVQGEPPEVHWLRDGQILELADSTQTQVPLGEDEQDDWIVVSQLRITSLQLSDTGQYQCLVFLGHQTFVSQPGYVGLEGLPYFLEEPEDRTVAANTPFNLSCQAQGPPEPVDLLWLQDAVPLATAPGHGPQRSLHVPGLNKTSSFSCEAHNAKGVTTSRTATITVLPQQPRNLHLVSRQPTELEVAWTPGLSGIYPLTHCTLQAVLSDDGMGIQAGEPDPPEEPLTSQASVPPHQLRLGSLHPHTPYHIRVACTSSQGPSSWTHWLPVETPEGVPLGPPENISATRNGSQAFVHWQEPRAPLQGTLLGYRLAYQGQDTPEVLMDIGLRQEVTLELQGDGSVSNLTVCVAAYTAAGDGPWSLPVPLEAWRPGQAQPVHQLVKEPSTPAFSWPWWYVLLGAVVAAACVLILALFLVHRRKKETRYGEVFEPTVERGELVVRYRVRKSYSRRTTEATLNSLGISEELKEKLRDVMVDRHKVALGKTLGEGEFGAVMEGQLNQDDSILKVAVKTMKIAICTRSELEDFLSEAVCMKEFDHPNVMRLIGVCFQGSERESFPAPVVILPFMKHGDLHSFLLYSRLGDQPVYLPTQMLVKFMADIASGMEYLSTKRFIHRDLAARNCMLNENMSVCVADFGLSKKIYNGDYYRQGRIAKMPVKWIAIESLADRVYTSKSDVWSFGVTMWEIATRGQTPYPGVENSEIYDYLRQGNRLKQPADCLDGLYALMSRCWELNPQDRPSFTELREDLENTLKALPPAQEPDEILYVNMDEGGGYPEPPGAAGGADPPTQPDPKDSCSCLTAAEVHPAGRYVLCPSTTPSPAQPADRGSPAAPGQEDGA
The note with it: AXL; 1 μM; read-out: % control.

For assay [3], the target named is T3, panel of 468 kinases (Homo sapiens, UniProt Q8IWQ3).
T3 construct: purchased KINOMEscan (ScanMAX) service
T3 sequence (Q8IWQ3 1-736): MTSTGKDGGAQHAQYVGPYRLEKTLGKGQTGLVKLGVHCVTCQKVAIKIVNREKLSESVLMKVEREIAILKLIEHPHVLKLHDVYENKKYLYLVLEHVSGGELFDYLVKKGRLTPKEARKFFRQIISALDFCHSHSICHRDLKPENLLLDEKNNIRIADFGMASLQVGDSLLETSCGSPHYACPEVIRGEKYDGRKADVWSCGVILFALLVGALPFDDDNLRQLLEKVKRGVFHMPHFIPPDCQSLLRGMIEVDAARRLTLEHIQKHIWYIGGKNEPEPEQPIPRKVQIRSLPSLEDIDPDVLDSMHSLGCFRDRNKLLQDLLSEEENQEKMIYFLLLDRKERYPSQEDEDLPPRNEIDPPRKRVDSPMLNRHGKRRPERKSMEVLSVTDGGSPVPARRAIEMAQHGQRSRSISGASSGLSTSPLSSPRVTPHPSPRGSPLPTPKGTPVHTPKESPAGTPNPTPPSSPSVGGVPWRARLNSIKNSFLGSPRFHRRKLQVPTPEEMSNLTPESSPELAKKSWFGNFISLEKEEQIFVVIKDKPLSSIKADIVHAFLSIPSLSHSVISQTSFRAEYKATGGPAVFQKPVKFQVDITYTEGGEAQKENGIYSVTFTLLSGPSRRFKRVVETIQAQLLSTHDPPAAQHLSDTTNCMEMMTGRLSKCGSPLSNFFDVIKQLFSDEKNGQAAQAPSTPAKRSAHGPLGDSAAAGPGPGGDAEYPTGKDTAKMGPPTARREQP
The note with it: BRSK2; 1 μM; read-out: % control.

Assay [4] addresses T4, panel of 468 kinases (Homo sapiens, UniProt Q9UM73, C1156Y).
T4 construct: purchased KINOMEscan (ScanMAX) service
The note with it: ALK(C1156Y); 1 μM; read-out: % control.

T4 sequence (Q9UM73 19-1620 C1156Y): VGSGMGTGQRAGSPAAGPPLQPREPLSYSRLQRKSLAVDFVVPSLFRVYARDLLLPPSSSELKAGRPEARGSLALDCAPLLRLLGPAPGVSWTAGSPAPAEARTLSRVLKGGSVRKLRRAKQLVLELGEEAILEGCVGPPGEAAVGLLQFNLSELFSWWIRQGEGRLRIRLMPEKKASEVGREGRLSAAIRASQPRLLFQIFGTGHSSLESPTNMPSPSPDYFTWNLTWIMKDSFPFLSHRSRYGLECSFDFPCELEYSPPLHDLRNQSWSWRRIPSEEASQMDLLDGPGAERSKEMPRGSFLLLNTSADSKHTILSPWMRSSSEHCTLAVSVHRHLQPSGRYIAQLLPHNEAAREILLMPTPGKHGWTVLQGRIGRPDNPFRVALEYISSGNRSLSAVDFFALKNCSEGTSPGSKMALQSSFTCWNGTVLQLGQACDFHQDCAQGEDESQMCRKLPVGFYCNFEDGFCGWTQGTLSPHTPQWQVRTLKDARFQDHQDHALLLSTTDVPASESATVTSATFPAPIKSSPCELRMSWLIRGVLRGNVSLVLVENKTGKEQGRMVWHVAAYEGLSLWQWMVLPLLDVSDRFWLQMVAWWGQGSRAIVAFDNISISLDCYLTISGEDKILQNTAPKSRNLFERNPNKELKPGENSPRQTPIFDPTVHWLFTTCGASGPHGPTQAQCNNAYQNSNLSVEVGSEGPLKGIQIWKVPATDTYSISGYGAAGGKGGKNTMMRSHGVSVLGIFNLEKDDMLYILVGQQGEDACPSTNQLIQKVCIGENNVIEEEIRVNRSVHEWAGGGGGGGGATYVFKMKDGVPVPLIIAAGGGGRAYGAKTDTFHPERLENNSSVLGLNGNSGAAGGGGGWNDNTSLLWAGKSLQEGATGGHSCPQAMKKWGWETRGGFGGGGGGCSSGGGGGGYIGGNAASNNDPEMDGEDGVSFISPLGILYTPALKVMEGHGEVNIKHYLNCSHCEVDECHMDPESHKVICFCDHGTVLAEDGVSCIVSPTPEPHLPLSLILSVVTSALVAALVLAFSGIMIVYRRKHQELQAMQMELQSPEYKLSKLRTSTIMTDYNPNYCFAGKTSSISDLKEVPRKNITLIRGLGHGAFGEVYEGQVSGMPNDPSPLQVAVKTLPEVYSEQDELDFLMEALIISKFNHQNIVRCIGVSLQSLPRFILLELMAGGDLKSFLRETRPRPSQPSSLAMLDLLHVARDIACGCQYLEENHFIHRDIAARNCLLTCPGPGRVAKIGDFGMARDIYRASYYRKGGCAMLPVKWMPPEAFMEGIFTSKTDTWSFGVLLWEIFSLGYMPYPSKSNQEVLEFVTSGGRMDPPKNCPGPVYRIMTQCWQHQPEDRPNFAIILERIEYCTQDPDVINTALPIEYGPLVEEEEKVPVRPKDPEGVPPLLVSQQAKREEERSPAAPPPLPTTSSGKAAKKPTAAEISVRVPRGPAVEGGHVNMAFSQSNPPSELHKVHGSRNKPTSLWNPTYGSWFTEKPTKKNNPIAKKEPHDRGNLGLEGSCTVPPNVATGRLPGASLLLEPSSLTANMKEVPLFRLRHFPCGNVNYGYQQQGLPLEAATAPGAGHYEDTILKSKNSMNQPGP

As for `CNc1nc(Nc2ccc(C(=O)N3CCC(N4CCOCC4)CC3)c3c2OCO3)nc2[nH]cc(Cl)c12` [Compound 75, (7-((5-chloro-4-(methylamino)-7H-pyrrolo[2,3-d]pyrimidin-2-yl)amino)benzo[d][1,3]dioxol-4-yl)(4-morpholinopiperidin-1-yl)methanone], the remaining binding at 1 µM worked out at 37% in assay [1], 63% in assay [2], 83% in assay [3] and 1.2% in assay [4].
`CNc1nc(Nc2ccc(P3(=O)CCN(C4CCOCC4)CC3)cc2OC)nc2[nH]cc(Cl)c12` [Compound 77, 4-(4-((5-chloro-4-(methylamino)-7H-pyrrolo[2,3-d]pyrimidin-2-yl)amino)-3-methoxyphenyl)-1-(tetrahydro-2H-pyran-4-yl)-1,4-azaphosphinane 4-oxide]: the remaining binding at 1 µM in assay [1] came out at 84%; in assay [2] it was 93%; in assay [3], 96%; in assay [4], 1.3%.
As to `CNc1nc(Nc2ccc(S(=O)(=O)N3CCC(N4CCOCC4)CC3)cc2OC)nc2[nH]cc(Cl)c12` [Compound 12, 5-chloro-N2-(2-methoxy-4-((4-morpholinopiperidin-1-yl)sulfonyl)phenyl)-N4-methyl-7H-pyrrolo[2,3-d]pyrimidine-2,4-diamine], the remaining binding at 1 µM in assay [1] worked out at 100%; in assay [2] it was 100%; in assay [3] it was 87%; in assay [4], 2.7%.
